Data set [1] deals with DU-145. Kind of data set: Cell viability MTS assay. It counts as cell-based, human. The note with it: Homo sapiens, DU-145, 72 hours with compound. Summed up:
(§1)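 Tetrazolium (MTS) viability read after 72 hours of compound treatment in DMEM with 15% FBS, 10 mM L-glutamine and 10 mM Hepes pH 7.5. IC50 derived by non-linear regression relative to 0.33% DMSO controls.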

The test system of data set [2] is HT29. The data set can be described thus: Cell viability MTS assay. Format: cell-based, human. The following applies: Homo sapiens, HT-29, 72 hours with compound. Summed up:
as §1

In data set [3] the test system is PC-3. The data set can be described thus: Cell viability MTS assay. Format: cell-based, human. The following applies: Homo sapiens, PC-3, 72 hours with compound. The method, boiled down:
as §1
On the technique in general: Formazan colour is commonly taken as a measure of viable cells.

The test system of data set [4] is SKOV-3. The data set can be described thus: Cell viability MTS assay. It counts as cell-based, human. The following applies: Homo sapiens, SK-OV-3, 72 hours with compound. Summed up: as §1
The subject of data set [5] is SK-MEL-28. The data set can be described thus: Cell viability MTS assay. Format: cell-based, human. The following applies: Homo sapiens, SK-MEL-28, 72 hours with compound. Summed up:
as §1

Data set [6] concerns MCF7. The data set can be described thus: Cell viability MTS assay. The note with it: Homo sapiens, MCF7, 72 hours with compound. It counts as cell-based, human. The method, boiled down:
as §1

For data set [7], the system named is K562. Kind of data set: Cell viability MTS assay. It counts as cell-based, human. The following applies: Homo sapiens, K562, 72 hours with compound. Summed up: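 Cells are seeded and incubated 16-24 hours, then given compound for 72 hours at 0.33% final DMSO. MTS and PMS are added for 4 hours, followed by SDS to 1.4%, and absorbance is read at 490 nm. IC50 marks a 50% drop in viable cells relative to DMSO-only wells.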

In data set [8] the test system is A549. The data set can be described thus: Cell viability MTS assay. It counts as cell-based, human. The note with it: Homo sapiens, A549, 72 hours with compound. Summed up: as §1
Data set [9] concerns HCT-116. The data set can be described thus: Cell viability MTS assay. The note with it: Homo sapiens, HCT-116, 72 hours with compound. It counts as cell-based, human. Summed up: as §1
For data set [10], the system named is MDA-MB-231. The data set can be described thus: Cell viability MTS assay. Format: cell-based, human. The following applies: Homo sapiens, MDA-MB-231, 72 hours with compound. The method, boiled down:
as §1

The subject of data set [11] is Recombinant Protein Kinase C. Kind of data set: Protein Kinase C kinase reaction, Histone H1, autoradiography (Example 79). It counts as biochemical. The note with it: 0.05, 0.5, or 10 μM, 15 minutes at room temperature. As for the experimental part:
Recombinant Protein Kinase C (Calbiochem) (100 ng) was incubated with (±)-cis-3-(5,6-dihydro-4H-pyrrolo[3,2,1-ij]quinolin-1yl)-4(1H-indol-3-yl)pyrrolidine-2,5-dione or (±)-trans-3-(5,6-dihydro-4H-pyrrolo[3,2,1-ij]quinolin-1-yl)-4(1H-indol-3-yl)pyrrolidine-2,5-dione at 0.05, 0.5, or 10 μM for 15 minutes at room temperature. Subsequently, a radioactive labeling mix in kinase buffer (20 mM Tris-HCl pH 7.5, 10 mM MgCl2) containing 20 μM ATP, 0.2 μCi/μl γ^32P-ATP, 0.2 μg/μl Histone H1 (Upstate) was added to each sample. The kinase reaction was carried out for 5 minutes at room temperature. Reaction products were analyzed by 12% SDS-PAGE and autoradiography.

The subject of data set [12] is MDA-MB-231 cells. Kind of data set: Cancer cell invasion assay with inserts (Example 85). Format: cell-based. The following applies: Homo sapiens, 24 hours pretreatment, 24 hours invasion, read-out: estimated IC50, invasive phenotype. The procedure: MDA-MB-231 cells were pretreated with indicated concentrations of (−)-trans-3-(5,6-dihydro-4H-pyrrolo[3,2,1-ij]quinolin-1-yl)-4(1H-indol-3-yl)pyrrolidine-2,5-dione for 24 hours. 300 μl of each cell suspension (at a concentration 0.5×10^6 cells/mL in serum free medium) was placed in individual inserts and incubated for 24 hours at 37° C. The bottom wells housing the inserts contained 500 μl of 10% FBS medium. […] Each insert was then transferred to a clean well containing cell stain solution and incubated for 10 minutes at room temperature. The bottom of the insert was destained by incubating in extraction solution and OD was measured at 560 nm. (−)-trans-3-(5,6-dihydro-4H-pyrrolo[3,2,1-ij]quinolin-1-yl)-4(1H-indol-3-yl) pyrrolidine-2,5-dione inhibited the migration across interstices in confluent cultures of MDA-MB-231 cancer cells. The data represent the mean of two independent experiments. (See FIG. 9)

For data set [13], the system named is HT29 human colon cancer xenograft. Kind of data set: Colon cancer xenograft model (Example 87). It counts as in vivo, mice. The note with it: for optimal tumor growth inhibition: daily 5 days on/2 off, 20 treatments. As for the experimental part:
In this human colon cancer xenograft model HT29 human colon cancer cells were inoculated subcutaneously into female athymic nude mice (5×10^6 cells/mouse) and allowed to form palpable tumors. Once the tumors reached approximately 60 mm^3, the animals were treated orally with either (−)-trans-3-(5,6-dihydro-4H-pyrrolo[3,2,1-ij]quinolin-1-yl)-4(1H-indol-3-yl)pyrrolidine-2,5-dione at 200 mg/kg or 300 mg/kg, or vehicle control daily (5 consecutive days, followed by a 2 day dosing holiday). (−)-trans-3-(5,6-dihydro-4H-pyrrolo[3,2,1-ij]quinolin-1-yl)-4(1H-indol-3-yl)pyrrolidine-2,5-dione was formulated in PEG 400:20% Vitamin E TPGS (60:40). The animals received a total of 20 treatments of either (−)-trans-3-(5,6-dihydro-4H-pyrrolo[3,2,1-ij]quinolin-1-yl)-4(1H-indol-3-yl) pyrrolidine-2,5-dione or vehicle control. Tumors were measured throughout treatment and the post-treatment observation period. Each point represents the mean±SEM of ten tumors. (See FIG. 11)

Data set [14] has as its system NCI-H69. The data set can be described thus: Cell viability MTS assay. The note with it: Homo sapiens, NCI-H69, 72 hours with compound. Format: cell-based, human. Summed up: as §1
In data set [15] the test system is NCI-H446. Kind of data set: Cell viability MTS assay. Format: cell-based, human. The following applies: Homo sapiens, NCI-H446, 72 hours with compound. Summed up:
as §1

Data set [16] concerns NCI-H82. The data set can be described thus: Cell viability MTS assay. It counts as cell-based, human. The note with it: Homo sapiens, NCI-H82, 72 hours with compound. Summed up: as §1

For the molecule `O=C1NC(=O)[C@@H](c2cn3c4c(cccc24)CCC3)[C@@H]1c1c[nH]c2ccccc12` (racemic) [(±)-Trans-3-(5,6-dihydro-4H-pyrrolo[3,2,1-ij]quinolin-1-yl)-4(1H-indol-3-yl)pyrrolidine-2,5-dione], the IC50 in data set [1] is 9610 nM; in data set [2] it was 4550 nM; in [3], 4950 nM; in data set [4], 939 nM; in data set [5] it was 13000 nM; in data set [6], over 100000 nM. Also, the IC50 in data set [7] worked out at 424 nM; in data set [8], 10700 nM; in data set [9], 1820 nM; in data set [10], 3340 nM. Besides, in data set [11], the “Protein Kinase C kinase activity in comparison to carrier alone” value is “did not reduce kinase activity”.
For `O=C1NC(=O)C(c2cn3c4c(cccc24)CCC3)C1c1c[nH]c2ccccc12` (single isomer, unassigned; (-)), the half-inhibitory concentration (IC50) is about 500 nM in data set [12]; 4000 nM in data set [1]; 1950 nM in data set [2]; 1280 nM in data set [3]; 444 nM in data set [4]; 8680 nM in data set [5]. Besides, the IC50 was over 100000 nM in data set [6]; 1040 nM in data set [14]; 294 nM in [7]; 581 nM in [15]; 828 nM in [16]; 5800 nM in data set [8]. Also, the IC50 in data set [9] was determined as 812 nM; in [10], 2190 nM. In [13] (200 mg/kg or 300 mg/kg oral administration), the “change in body weight” value is “no significant change in body weight”. Also, the “optimal tumor growth inhibition” value in data set [13] (200 mg/kg orally) is listed as 39%; in data set [13] (300 mg/kg orally), 55%.

The IC50 is the point on the concentration scale where inhibition reaches its midpoint.

Source of the values: patent publication US7713969B2, “Compositions and methods for treatment of cancer” (ArQule, Inc., priority 2005, dated 2010).
